Results published in patent US4593090A, “Novel nitrosourea compounds, method for preparing same, and pharmaceutical composition containing same” (Gogo Kimura, priority 1981, dated 1986).

Assays:
[1] = system: Leukemia L1210; assay: Activity against Leukemia L1210, intraperitoneal, increase in life span of mice; format: in vivo, female mice (BDF1 family); settings: for ED (maximum ILS) / ED30: Mus musculus, L1210, ip, ip once a day for 5 successive days; for ED (maximum ILS): daily dosage giving maximum increase of life span, read-out: O.D. (optimum dosage); for ED30: daily dosage increasing average survival days by 30%, read-out: ILS30; for Survivors after 60 days / Max. ILS % / Therapeutic ratio TR: ip; for Survivors after 60 days: 6-membered group; for Max. ILS %: 60-day observation, versus control; for Therapeutic ratio TR: O.D./ILS30
Experimental: Tests were conducted in accordance with the method for measuring antitumor activity of National Cancer Center Tokyo (A, Hoshi et al, Farumashia 9 464 (1973)). Test compounds were each intraperitoneally (referred to as ip) or orally (referred to as op) administered once a day for 5 successive days to a 6-membered group of femal mice (BDF1 family, each weighing 20 to 23 g) 24 hours after 1×10^5 cells of Leukemia L1210 have been implantated into the abdominal cavities of the mice, and the effect was evaluated by comparing the survival days of treated groups with those of an untreated group of mice (control group) in 60-day observation. An increase percentage of life span (ILS%) was calculated from said average survival days compared with those of the control group. Further, therapeutic ratio (O.D./ILD30, referred to as T.R.) of each tested compound was calculated from the daily dosage of the compound necessary to increase said average survival days by 30% as compared with the control group (this dosage is referred to as ILS 30) and the daily dosage giving a maximum increase of life span to mice implantated with L1210 cells, namely an optimum dosage (referred to as O.D.). The results of five successive days intraperitoneal administrations of test compounds were shown in Tables I to III, and those of five successive oral administrations in Table IV.

[2] = Acute toxicity (LD50, Behrens-Karber method); format: in vivo, ICR mice; settings: mouse, in vivo, ip, mortality during 30 days
Experimental: Test compounds, dissolved or suspended in 0.5% aqueous CMC, were each intraperitoneally administered to ICR mice in a dose of 0.1 ml per 10 g body weight. LD50 (mg/kg) value of each test compound was calculated from the mortality of mice during 30 days by the Behrens-Karber method.

Row | Structure (SMILES) | ED (maximum ILS) [1] [mg/kg] | ED30 [1] [mg/kg] | Survivors after 60 days [1] | Max. ILS % [1] [%] | Therapeutic ratio TR [1] | LD50 at 720 h [2] [mg/kg]
1 | C=CCN(C[C@H]1O[C@H](OC2CCCCC2)[C@H](O)[C@@H](O)[C@@H]1O)C(=O)N(CCCl)N=O [Compound 38, 3-(2-propenyl) -3-(cyclohexyl α-D-glucopyranose-6-yl)-1-(2-chloroethyl)-1-nitrosourea] | 150 | 3.28 | 6/6 | > 700 | 45.7 | 430
2 | O=NN(CCCl)C(=O)N(CCCCO)C[C@H]1O[C@H](OC2CCCCC2)[C@H](O)[C@@H](O)[C@@H]1O [Compound 43] | 160 | 4.68 | 4/6 | > 435 | 34.2 | 520
3 | O=NN(CCCl)C(=O)N(CC1CC1)C[C@H]1O[C@H](OC2CCCCC2)[C@H](O)[C@@H](O)[C@@H]1O [Compound 44, 3-cyclopropylmethyl-3-(cyclohexyl α-D-glucopyranose-6-yl)-1-(2-chloroethyl)-1-nitrosourea] | 150 | 3.32 | 6/6 | > 700 | 45.2 | 435
4 | O=NN(CCCl)C(=O)N(CCC1CCCC1)C[C@H]1O[C@H](OC2CCCCC2)[C@H](O)[C@@H](O)[C@@H]1O [Compound 45, 3-(2-cyclopentylethyl)-3-(cyclohexyl α-D-glucopyranose-6-yl)-1-(2-chloroethyl)-1-nitrosourea] | 180 | 4.22 | 5/6 | > 625 | 42.7 | 560
5 | O=NN(CCCl)C(=O)N(Cc1ccccc1)C[C@H]1O[C@H](OC2CCCCC2)[C@H](O)[C@@H](O)[C@@H]1O [Compound 46, 3-benzyl-3-(cyclohexyl α-D-glucopyranose-6-yl)-1-(2-chloroethyl)-1-nitrosourea] | 150 | 3.9 | 4/6 | > 425 | 38.5 | 510
6 | Cc1ccc(CN(C[C@H]2O[C@H](OC3CCCCC3)[C@H](O)[C@@H](O)[C@@H]2O)C(=O)N(CCCl)N=O)cc1 [Compound 47, 3-(p-methylbenzyl)-3-(cyclohexyl α-D-glucopyranose-6-yl)-1-(2-chloroethyl)-1-nitrosourea] | 170 | 4.97 | 4/6 | > 440 | 34.2 | 545
7 | COc1ccc(CN(C[C@H]2O[C@H](OC3CCCCC3)[C@H](O)[C@@H](O)[C@@H]2O)C(=O)N(CCCl)N=O)cc1 [Compound 48, 3-(p-methoxybenzyl)-3-(cyclohexyl α-D-glucopyranose-6-yl)-1-(2-chloroethyl)-1-nitrosourea] | 170 | 4.64 | 4/6 | > 445 | 36.6 | 530
8 | COc1cccc(CN(C[C@H]2O[C@H](OC3CCCCC3)[C@H](O)[C@@H](O)[C@@H]2O)C(=O)N(CCCl)N=O)c1OC [Compound 49, 3-(2,3-dimethoxybenzyl)-3-(cyclohexyl α-D-glucopyranose)-6-yl)-1-(2-chloroethyl-1-nitrosourea] | 170 | 4.74 | 4/6 | > 420 | 35.9 | 560
9 | COc1ccc(CO[C@H]2O[C@H](CN(CC(C)C)C(=O)N(CCCl)N=O)[C@@H](O)[C@H](O)[C@H]2O)cc1 [Compound 51, 3-isobutyl-3-(p-methoxybenzyl α-D-glucopyranose-6-yl)-1-(2-chloroethyl)-1-nitrosourea] | 120 | 3.3 | 4/6 | > 430 | 36.4 | 350
